Key:
[1] = Cytotoxicity of flavonoid dimers, L929 mouse fibroblast; type: cell-based; details: mouse, L929 fibroblast cells, IC50 of compound alone, 72 hrs, mouse fibroblast
How it was run: (§1)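 LCC6, LCC6MDR and L929 cells seeded at 1×10^4 cells/well and exposed to graded doses of flavonoid dimers. Incubation 72 hrs at 37° C., 5% CO2. Read-out: % survivors.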

LCC6 cells [2] = test: Doxorubicin influx in LCC6 cells; type: cell-based, human; details: after 75 min
Experimental: (§2) Influx and Efflux Studies. […] 0.15% of DMSO acted as a negative control. The cells were harvested after 0, 15, 30, 45, 75 min for determining the intracellular Doxorubycin concentration as described previously. […] The cells were then washed and further incubated in the presence or absence of compound 18 (1 or 3 μM). At 0, 15, 30, 60, 90, 120, 150 and 180 min, the cells were harvested for measuring the intracellular Doxorubycin concentration.
(§3) Effect of Compound 18 on Doxorubicin Influx and Efflux of MDA435/LCC6MDR Cells. Experiments were performed to determine whether the increased accumulation of doxorubicin in LCC6MDR cells caused by 18 is due to potentiation of doxorubicin influx or inhibition of efflux.

[3] = Cytotoxicity over LCC6, LCC6MDR and L929 cell lines; type: cell-based, human, mouse; details: human, mouse, LCC6MDR and L929 cell lines; cancer lines LCC6, LCC6MDR and/or L929
[4] = Tumor cell line cytotoxicity of flavonoid dimers, LCC6; type: cell-based, human; details: human, LCC6 cells, IC50 of compound alone
How it was run: as §1

LCC6MDR cells = test: Doxorubicin influx in LCC6MDR cells; type: cell-based, human; details: for Intracellular doxorubicin level, influx: LCC6MDR, after 75 min
Experimental: as §2, §3

[5] = test system: LdAG83 promastigotes (wild type); test: In vitro anti-promastigote activity, LdAG83; type: cell-based, Leishmania donovani; details: Leishmania donovani, 72 h, read-out: Anti-promastigotes activity (IC50, μM) LdAG83
How it was run: (§4)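 L. donovani (LdAG83 wild type, SSG-resistant Ld39) and L. major Lm50122 promastigotes were seeded at 1×10^5 per well with a concentration series of compound.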

Pgp (LCC6MDR cells) [6] = molecular target: T1, Pgp (LCC6MDR cells) (Homo sapiens, UniProt P08183); test: Doxorubicin accumulation in LCC6MDR cells
T1 sequence (P08183 whole entry): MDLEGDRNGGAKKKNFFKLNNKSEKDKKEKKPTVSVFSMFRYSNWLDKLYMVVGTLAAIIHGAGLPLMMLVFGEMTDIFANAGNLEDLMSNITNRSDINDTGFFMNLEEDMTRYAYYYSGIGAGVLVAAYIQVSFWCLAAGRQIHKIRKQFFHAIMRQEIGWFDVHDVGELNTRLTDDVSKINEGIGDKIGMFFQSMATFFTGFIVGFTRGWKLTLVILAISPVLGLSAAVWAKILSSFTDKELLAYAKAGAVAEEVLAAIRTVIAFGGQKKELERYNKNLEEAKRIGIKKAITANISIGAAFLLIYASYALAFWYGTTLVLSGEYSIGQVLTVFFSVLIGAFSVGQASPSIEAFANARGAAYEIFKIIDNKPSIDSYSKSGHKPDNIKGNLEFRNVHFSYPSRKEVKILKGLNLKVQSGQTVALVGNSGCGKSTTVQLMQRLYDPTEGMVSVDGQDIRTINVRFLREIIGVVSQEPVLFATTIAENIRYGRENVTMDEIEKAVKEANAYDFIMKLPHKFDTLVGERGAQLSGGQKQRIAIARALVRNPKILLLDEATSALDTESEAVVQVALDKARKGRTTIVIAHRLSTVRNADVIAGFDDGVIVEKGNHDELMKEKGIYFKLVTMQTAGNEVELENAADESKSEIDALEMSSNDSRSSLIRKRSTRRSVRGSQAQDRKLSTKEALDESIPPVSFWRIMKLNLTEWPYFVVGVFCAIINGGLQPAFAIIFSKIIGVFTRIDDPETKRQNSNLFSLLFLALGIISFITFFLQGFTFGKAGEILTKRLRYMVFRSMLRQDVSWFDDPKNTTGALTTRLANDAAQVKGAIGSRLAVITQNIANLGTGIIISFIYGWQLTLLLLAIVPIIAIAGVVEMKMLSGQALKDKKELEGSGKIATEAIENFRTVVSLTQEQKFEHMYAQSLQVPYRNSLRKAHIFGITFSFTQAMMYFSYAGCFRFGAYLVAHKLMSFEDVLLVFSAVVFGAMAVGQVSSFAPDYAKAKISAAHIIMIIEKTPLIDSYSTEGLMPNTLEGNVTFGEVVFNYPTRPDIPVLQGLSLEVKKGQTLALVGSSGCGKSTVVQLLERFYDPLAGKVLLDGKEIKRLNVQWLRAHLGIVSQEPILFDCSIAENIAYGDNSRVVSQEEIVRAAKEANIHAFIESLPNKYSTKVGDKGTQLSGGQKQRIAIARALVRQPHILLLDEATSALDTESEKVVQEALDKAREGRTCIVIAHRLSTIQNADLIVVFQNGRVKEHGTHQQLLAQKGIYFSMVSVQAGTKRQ

[7] = test system: Ld39 promastigotes (SSG-resistant); test: In vitro anti-promastigote activity, Ld39; type: cell-based, Leishmania donovani; details: Leishmania donovani, 72 h, read-out: Anti-promastigotes activity (IC50, μM) Ld39
How it was run: as §4

Raw264.7 cells = test: Cytotoxicity, mouse macrophage Raw264.7; type: cell-based; details: Mus musculus, RAW264.7, 72 h
How it was run: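 Raw264.7 (1×10^4 cells/well) and primary PEM cells (2×10^4 cells/well) in supplemented DMEM received graded compound doses and were incubated 72 h at 37 °C, 5% CO2. Percent survivors determined; cytotoxicity IC50 used for therapeutic index against antileishmanial IC50.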

[8] = Tumor cell line cytotoxicity of flavonoid dimers, LCC6MDR; type: cell-based, human; details: human, LCC6MDR cells, IC50 of compound alone
How it was run: as §1

LCC6 cells [9] = test: Doxorubicin efflux in LCC6 cells; type: cell-based, human; details: after 3 hrs
Experimental: as §2
In the efflux experiments, both LCC6 and LCC6MDR were first pre-loaded with doxorubicin for 2 hrs, washed and the remaining doxorubicin was measured after 0, 15, 30, 60, 90, 120, 150 and 180 min. […] Thus efflux rate of LCC6MDR is higher than LCC6. At 1DM or 3 μM of 18, the doxorubicin efflux rate was unaltered in the wild type LCC6 cells. After 3 hrs, the intracellular doxorubicin levels of LCC cells at 1 μM (3122 FU, 71% of doxorubicin remained) and 3 μM (3103 FU, 71% of doxorubicin remained) were very close to that at 0 μM (2601 FU, 60% of doxorubicin remained), respectively (FIG. 3A).

LCC6 cells [10] = test: Doxorubicin accumulation in LCC6 cells; type: cell-based, human; details: 1 μM
Description: Doxorubycin accumulation. […] […].

Pgp (LCC6MDR cells) [11] = molecular target: T1, Pgp (LCC6MDR cells); test: Cell proliferation assay: Pgp-modulating activity, reversal of anticancer drug resistance in LCC6MDR cells; details: for EC50: EC50 of compounds for reversing anticancer drug resistance (nM), LCC6MDR
LCC6 cells [12] = test: Cell proliferation assay: paclitaxel on parental LCC6 cells without modulator; type: cell-based; details: Homo sapiens, LCC-6, no modulator, read-out: IC50 of paclitaxel of LCC6 in the absence of modulators
Description: Cell Proliferation Assay.

Compound: O=c1cc(-c2ccc(OCCOCCN(CCOCCOc3ccc(-c4cc(=O)c5ccccc5o4)cc3)Cc3ccccc3)cc2)oc2ccccc12 [Compound 18, 1,13-Bis[4′-(4H-chromen-4-on-2-yl)phenyl]-N-(benzyl)-1,4,10,13-tetraoxa-7-azamidecane]
- IC50 at 72 h [1]: 85 µM
- Intracellular doxorubicin level, influx (LCC6 cells [2]; LCC6, 1 μM): 0-1320 FU
- Intracellular doxorubicin level, influx (LCC6 cells [2]; LCC6, 3 μM): 0-1035 FU
- IC50 at 72 h [3]: > 63000 nM
- IC50 at 72 h [4]: > 75 µM
- Effect on doxorubicin influx (LCC6MDR cells; 1 or 3 μM, LCC6 and LCC6MDR): no effect on doxorubicin influx
- Intracellular doxorubicin level, influx (LCC6MDR cells; 1 μM): 0-803 FU
- Intracellular doxorubicin level, influx (LCC6MDR cells; 3 μM): 0-909 FU
- IC50 [5]: 8.4 ± 6.1 µM
- Fold more active than verapamil in inhibiting doxorubicin transport activity of Pgp (Pgp (LCC6MDR cells) [6]): roughly 16 fold
- Concentration to restore doxorubicin accumulation in LCC6MDR to levels of parental LCC6 (Pgp (LCC6MDR cells) [6]; LCC6MDR): 500 nM
- IC50 [7]: 12.3 ± 6 µM
- IC50 (Raw264.7 cells): > 79000 nM
- IC50 at 72 h [8]: > 63 µM
- Doxorubicin remained (LCC6 cells [9]; LCC6, 1 μM): 71%
- Intracellular doxorubicin level, efflux (LCC6 cells [9]; LCC6, 1 μM): 3122 FU
- Doxorubicin remained (LCC6 cells [9]; LCC6, 3 μM): 71%
- Intracellular doxorubicin level, efflux (LCC6 cells [9]; LCC6, 3 μM): 3103 FU
- Effect on intracellular doxorubicin accumulation in parental LCC6 (LCC6 cells [10]): does not increase
- EC50 (Pgp (LCC6MDR cells) [11]; Daunorubicin): 95 ± 25 nM
- EC50 (Pgp (LCC6MDR cells) [11]; Doxorubicin): 131 ± 13 nM
- EC50 (Pgp (LCC6MDR cells) [11]; Mitoxantrone): 90 ± 20 nM
- EC50 (Pgp (LCC6MDR cells) [11]; Paclitaxel): 148 ± 18 nM
- EC50 (Pgp (LCC6MDR cells) [11]; Vinblasinte, vinblastine): 173 ± 27 nM
- EC50 (Pgp (LCC6MDR cells) [11]; Vincristine): 179 ± 32 nM
- Therapeutic index (Pgp (LCC6MDR cells) [11]; IC50 of compounds for L929/EC50 of compounds for lowering paclitaxel drug resistance): 574.3

Compound: CC(=O)O[C@H]1C(=O)[C@@]2(C)[C@H]([C@H](OC(=O)c3ccccc3)[C@]3(O)C[C@H](OC(=O)[C@H](O)[C@@H](NC(=O)c4ccccc4)c4ccccc4)C(C)=C1C3(C)C)[C@]1(OC(C)=O)CO[C@@H]1C[C@@H]2O [paclitaxel]
- IC50 (LCC6 cells [12]): 1.6 ± 0.3 nM

From US8980848B2, “Flavonoid dimers and their use” (The Hong Kong Polytechnic University, priority 2010, dated 2015)
